Legend:
EA-activated TRPC5 = biological target: T1, EA-activated TRPC5 (Mus musculus, UniProt Q9QX29); assay: FLIPR Ca2+ assay, E isomers silencing EA-activated TRPC5 (HEK293-mTRPC5-YFP); format: cell-based
T1 construct: expressed in transfected cells; host or cells: HEK293-mTRPC5-YFP
T1 sequence (Q9QX29 1-975): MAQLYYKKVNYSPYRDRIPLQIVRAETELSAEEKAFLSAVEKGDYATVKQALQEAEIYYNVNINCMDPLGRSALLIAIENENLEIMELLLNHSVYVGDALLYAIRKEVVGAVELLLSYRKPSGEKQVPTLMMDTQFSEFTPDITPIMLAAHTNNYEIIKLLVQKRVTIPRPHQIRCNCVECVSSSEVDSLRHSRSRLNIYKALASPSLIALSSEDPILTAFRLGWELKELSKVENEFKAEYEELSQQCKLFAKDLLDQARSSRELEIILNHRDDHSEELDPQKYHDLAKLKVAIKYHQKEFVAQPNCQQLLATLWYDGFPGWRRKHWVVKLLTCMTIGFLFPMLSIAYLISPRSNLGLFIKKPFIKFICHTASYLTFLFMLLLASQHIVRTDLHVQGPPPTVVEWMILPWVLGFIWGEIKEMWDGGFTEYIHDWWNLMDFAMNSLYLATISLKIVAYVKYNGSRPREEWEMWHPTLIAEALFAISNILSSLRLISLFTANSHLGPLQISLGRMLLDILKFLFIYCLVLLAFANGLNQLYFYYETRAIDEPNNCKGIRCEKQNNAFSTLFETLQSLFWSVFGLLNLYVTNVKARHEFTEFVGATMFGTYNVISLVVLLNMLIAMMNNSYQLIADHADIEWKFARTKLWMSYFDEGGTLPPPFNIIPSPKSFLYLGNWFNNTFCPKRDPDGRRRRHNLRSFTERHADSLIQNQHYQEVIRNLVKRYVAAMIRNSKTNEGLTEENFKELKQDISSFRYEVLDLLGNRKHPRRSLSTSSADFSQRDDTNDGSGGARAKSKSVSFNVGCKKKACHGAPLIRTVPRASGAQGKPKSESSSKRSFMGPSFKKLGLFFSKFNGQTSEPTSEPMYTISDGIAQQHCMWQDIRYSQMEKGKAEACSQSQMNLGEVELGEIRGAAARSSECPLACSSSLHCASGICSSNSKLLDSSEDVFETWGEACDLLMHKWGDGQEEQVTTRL
Description: Müller, Niemeyer, et al., Schaefer & Thorn-Seshold 2025: Ideal Efficacy Photoswitching of TRPC4/5 in Tissue but it can justify why the affinity of the E/Z-isomers may be similar.
(§1) (2) The EC50 values are reported as the midpoints of unconstrained sigmoidal fits to the FLIPR data (Fig 1l and Supplementary Fig. 2): with different levels of channel activation / blocking and very different Hill slopes across different compounds, isomers, and the two channels. This argues that the midpoint values only capture one of the several important factors describing the […]
(§2) We believe that it is possible to derive indicative relative values for binding affinity comparing the E and Z isomers of the same compound using only the combination of FLIPR and ephys data as reported in this paper; this analysis is being developed in a separate paper (see also below).
(§3) Supplementary Table 1. Potencies on TRPC4/5 depicted as either simple agonistic potency (blue) or else inhibitory […]
(§4) . Z*-values refer to mostly-Z-isomer reached at PSS at 365 nm, E*-values refer to experiments that initially applied 100% E-isomer (thermally relaxed), though in both cases the Ca2+ imaging in FLIPR with Fluo4-AM uses 470 nm excitation, which may over time promote photoswitching towards a PSS that is intermediate between those of pure-365 nm and all-E; this is controlled for in the more reliable ephys measurements). (Table indices: a, data from ref7; b, data from ref2; c, data from ref3; d, data from ref8.) EC50 [nM] (for simple agonism or EA-competitive inhibition)
(§5) E-AzPico 90 (vs 30 nM EA) 67 (vs 30 nM EA) […]
(§6) orange: inhibitory effect ag.: agonistic effect
(§7) 1.1.1 From always-active antagonists and agonists towards efficacy photoswitches […]
(§8) photoisomerising an azobenzene that is merged in at the C’4 position yielding the compounds […]
inhibitory effect for the E-isomers (Supplementary Table 1). Essentially, the effects of Pico145 and AM237 are latent within a single (two-state reversibly photoswitchable) molecule. This combination is what we call an efficacy switch (also see main text Fig. 1e-j).
1.1.2 Mechanistic test for efficacy photoswitching […]
deliver (Fig. 1-2) is a powerful support for an efficacy switch interpretation. To indirectly support this further, we also measured the effects of E-AzPico and E-AzHC against EA-activated TRPC4/5.
Both E-isomers bind to TRPC4/5 and inhibit EA-evoked currents with nanomolar potencies (Supplementary Fig. 2, Supplementary Table 2). This supports the hypothesis that E- […]
(§9) to be an EA-competitive binder5,9,10), so their efficacy as single agent photoswitches results from E/Z-competitive binding that is determined by their PSS. […]
(§10) Supplementary Table 2. […] (a Inhibitory effect measured against 30 nM EA; b Inhibitory effect measured against 50 nM EA). […]

EA-activated TRPC4 = biological target: T2, EA-activated TRPC4 (Mus musculus, UniProt Q9QUQ5); assay: FLIPR Ca2+ assay, E isomers silencing EA-activated TRPC4 (HEK293-mTRPC4β-YFP); format: cell-based; settings: Inhibitory IC50 (versus 30 nM EA) TRPC4, E isomer, thermally relaxed; 30 nM EA
T2 construct: expressed in transfected cells; host or cells: HEK293-mTRPC4β-YFP
T2 sequence (Q9QUQ5 1-890 isoform Q9QUQ5-2): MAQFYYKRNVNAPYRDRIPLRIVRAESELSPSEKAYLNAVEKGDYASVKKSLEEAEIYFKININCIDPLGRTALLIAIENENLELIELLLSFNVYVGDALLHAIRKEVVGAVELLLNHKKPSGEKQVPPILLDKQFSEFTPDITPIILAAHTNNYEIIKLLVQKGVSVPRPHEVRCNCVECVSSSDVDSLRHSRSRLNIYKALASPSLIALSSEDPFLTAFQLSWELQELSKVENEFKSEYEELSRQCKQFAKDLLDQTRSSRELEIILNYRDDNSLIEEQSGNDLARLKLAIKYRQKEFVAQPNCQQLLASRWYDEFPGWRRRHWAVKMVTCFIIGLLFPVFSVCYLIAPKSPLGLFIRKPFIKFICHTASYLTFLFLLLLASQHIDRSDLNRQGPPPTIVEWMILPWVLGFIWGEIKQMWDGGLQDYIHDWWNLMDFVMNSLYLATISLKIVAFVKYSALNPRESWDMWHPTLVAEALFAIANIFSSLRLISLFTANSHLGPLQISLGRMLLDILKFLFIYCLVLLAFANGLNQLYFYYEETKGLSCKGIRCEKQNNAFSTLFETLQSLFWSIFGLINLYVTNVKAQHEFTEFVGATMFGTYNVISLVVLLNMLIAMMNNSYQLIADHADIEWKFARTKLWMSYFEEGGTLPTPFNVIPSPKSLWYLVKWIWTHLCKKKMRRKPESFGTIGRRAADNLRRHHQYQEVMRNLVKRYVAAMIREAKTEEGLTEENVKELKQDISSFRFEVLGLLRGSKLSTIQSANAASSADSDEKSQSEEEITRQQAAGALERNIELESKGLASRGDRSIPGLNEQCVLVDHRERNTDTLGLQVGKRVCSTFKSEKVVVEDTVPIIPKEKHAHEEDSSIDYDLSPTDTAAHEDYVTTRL
Description: as §1, §2, §3, §4, §5, §6, §7, §8
deliver (Fig. 1-2) is a powerful support for an efficacy switch interpretation. To indirectly support this further, we also measured the effects of E-AzPico and E-AzHC against EA-activated TRPC4/5. […]
as §9, §10

[1] = test system: Th+ neurons of Th-GCaMP6f-ΔTrpc5 mice; assay: GCaMP6f Ca2+ imaging of Th+ neurons in arcuate nucleus brain slices with 355 nm photoswitching, Th-GCaMP6f-ΔTrpc5 (5ko) mice; settings: 500 nM; 355 nm pulse
Description: slices through the ARC of mice expressing the Ca2+ indicator GCaMP6f in Th+ neurons (Fig. 4),
we investigated (1) whether Ca2+ responses at endogenous TRPC5 expression levels can be
TRPC5 expression using TRPC5-deficient brain slices, (3) whether a dose dependence could be
detected, and (4) whether there are properties in channel activity that can be distinguished between
concentration-response measurements (Fig. 5d).

mouse TRPC5 = biological target: T3, mouse TRPC5 (Mus musculus, UniProt Q9QX29); assay: FLIPR Ca2+ influx assay (Fluo-4) with 365/447 nm photoswitching, HEK293 stably expressing mouse TRPC5; format: cell-based; settings: Z* = mostly-Z PSS under 365 nm LED; Fluo-4-loaded cells; read-out: Agonistic EC50 (365 nm) TRPC5
T3 construct: expressed in transfected cells; host or cells: HEK293 (ATCC CRL 1573), stably transfected, tetracycline-induced
T3 sequence (Q9QX29 1-975): T1 sequence (Q9QX29 1-975)
Description: (§11) We initially screened for the photoswitchability of activity in cells using a fluorometric imaging plate reader (FLIPR) calcium flux assay, with HEK293 cells stably expressing mouse TRPC4β or mouse TRPC5. Note, however, that the parallel-throughput FLIPR setup is limited to use fixed light-emitting diodes at 365 nm (good Z) and 447 nm (suboptimal E), which, combined with the slowness of the onset and recovery of the fluorescence readout for calcium, causes the FLIPR results to underestimate the reagents’ true speed, degree and completion of TRPC chromocontrol (shown later). […]
(§12) 3 Cultured Cell Lines (primarily for Fig. 1 and Fig. 2)
(§13) 3.1 FLIPR Ca2+ influx assay in cell suspensions.
(§14) We initially screened for photoswitchability of activity in cells, using a fluorometric imaging plate reader (FLIPR) calcium flux assay, with human embryonic kidney cell line HEK293 stably transfected to express mouse TRPC4β- or TRPC5-CFP fusion protein (HEKmTRPC4β-CFP / HEKmTRPC5-CFP, HEK293 obtained from ATCC CRL 1573). The FLIPR setup provides high-content data, but it is limited to using LED wavelengths of 365 nm (best-Z) and 447 nm (suboptimal-E), while imaging at 470 nm excitation (Fluo-4 AM as Ca2+ indicator; this imaging light counteracts both PSSs). Therefore, we expected the FLIPR results to under-estimate the true chromocontrol power accessible to the reagents.
(§15) Cells were grown to 70%-90% confluency in a 75-cm2 culture flask, trypsinised, washed and resuspended in BSA-containing (0.1%) HBS, and supplemented with 3 µM Fluo-4/AM. Stably TRPC-transfected cells were induced with tetracycline 24 h prior to the experiments.42,43 After incubation at 37°C for 30 min [Fluo-4 loading], cells were again washed, resuspended, and dispensed (40 µl/well) into black pigmented, clear-bottom 384-well plates (Greiner µ-clear). To image the Fluo-4 fluorescence during the application and photoswitching of test compounds, these plates were first mounted to a Tecan Fluent 480 (Tecan, Männedorf, Switzerland) liquid handling device, equipped with a 384-tip multichannel arm and a gripper arm. A custom-made plate-imaging device was used for photoswitching during fluorescence imaging, which features LED-based excitation modules (365 nm and 447 nm used here for photoswitching, and 470 nm used here for Fluo-4 readout) projected onto the bottom of the microwell plate, with a cooled scientific complementary metal oxide sensor (sCMOS) camera (Zyla 5.5, Andor, Belfast, UK) equipped with a Nokton 42.5 mm f/0.95 (Voigtlaender, Fürth, Germany) for detection. The LEDs were controlled with an Arduino device and constant current drivers (1 A for 365 and 470 nm LEDs; 3 A for 447 nm LED); detection was under the control of Micromanager 2.0 software. Compounds were serially diluted and applied to the Fluo-4-loaded cell suspensions inside this custom plate-imaging device, then fluorescence intensities (under 470 nm excitation) were continuously recorded during programmed illuminations e.g. with alternating 365 nm and 447 nm phases.
(§16) Concentration-response curves for the Z-isomers (channel activation) were then constructed from the maximal signals during 365 nm phases, after a suitable number of "priming" cycles to allow the system to reach stable performance (Supplementary Fig. 13).
All experiments were conducted as a minimum of 3 independent experiments with each experiment averaging data in technical duplicates. […]
Cellular TRPC5 photoswitching: HEK cell Ca2+ influx photomodulation […]
Supplementary Figure 12. […] All […]
four compounds' profiles are consistent with their being ideal efficacy photoswitches (representative traces from one experiment out of ≥3 independent experiments each run in technical duplicates). […]
log c [nM] log c [nM] log c [nM] log c [nM]
Supplementary Figure 13. Dose-response for Z*-AzPico, Z*-AzPico2, Z*-AzHC, and Z*-AzHC2 on TRPC5 and […]

mouse TRPC4β = biological target: T4, mouse TRPC4β (Mus musculus, UniProt Q9QUQ5); assay: FLIPR Ca2+ influx assay (Fluo-4) with 365/447 nm photoswitching, HEK293 stably expressing mouse TRPC4β; format: cell-based; settings: Z* = mostly-Z PSS under 365 nm LED; Fluo-4-loaded cells; read-out: Agonistic EC50 (365 nm) TRPC4
T4 construct: expressed in transfected cells; host or cells: HEK293 (ATCC CRL 1573), stably transfected, tetracycline-induced
T4 sequence (Q9QUQ5 1-890 isoform Q9QUQ5-2): T2 sequence (Q9QUQ5 1-890 isoform Q9QUQ5-2)
Description: as §11, §12, §13, §14, §15, §16
All experiments were conducted as a minimum of 3 independent experiments with each experiment averaging data in technical duplicates.
Cellular TRPC4 photoswitching: HEK cell Ca2+ influx photomodulation […]
Supplementary Figure 12. […]

| SMILES | IC50 (EA-activated TRPC5; Inhibitory IC50 (versus 30 nM EA) TRPC5, E isomer, thermally relaxed, 30 nM EA) [µM] | IC50 (EA-activated TRPC5; Inhibitory IC50 (versus 50 nM EA) TRPC5, E isomer, 50 nM EA) [µM] | IC50 (EA-activated TRPC4) [µM] | Ca2+ photoresponse in TRPC5-knockout slices [1] | EC50 (mouse TRPC5) [µM] | EC50 (mouse TRPC4β) [µM] |
| --- | --- | --- | --- | --- | --- | --- |
| Cn1c(=O)n(CCCO)c(=O)c2c1nc(Oc1ccc(/N=N/c3ccccc3)c(Cl)c1)n2Cc1ccc(Cl)cc1 [E-AzHC] | 0.149 | 0.177 | 0.11 | – | – | – |
| Cn1c(=O)n(CCCO)c(=O)c2c1nc(Oc1ccc(/N=N\c3ccccc3)c(OC(F)(F)F)c1)n2Cc1ccc(Cl)cc1 [Z*-AzPico] | – | – | – | maintained | 0.004 | 0.003 |

From article PMC12858405, “Ideal efficacy photoswitching for chromocontrol of TRPC4/5 channel functions in live tissues” (Nature Chemical Biology, 2026)
